The text below walks through data of patent publication US20220022457A1, “Microbicide Ammonium-Imidazolium Oligomers and Their Anti-Fungal Compositions” (AGENCY FOR SCIENCE, TECHNOLOGY AND RESEARCH, priority 2018, published 2022).

In data set [1] the test system is Candida albicans (ATCC 10231, fungus). As to the kind of experiment: Minimum inhibitory concentration, microdilution assay. The format is cell-based. To be noted: for MIC50 C.A. (value in brackets): Candida albicans, concentration inhibiting 50% fungal growth. Here is the method: Staphylococcus aureus (ATCC 6538, Gram-positive), Escherichia coli (ATCC 8739, Gram-negative), Pseudomonas aeruginosa (ATCC 9027, Gram-negative), and Candida albicans (ATCC 10231, fungus) were used as representative microorganisms to challenge the antimicrobial functions of the oligomers. All bacteria and fungus were frozen at -80° C., and were grown overnight at 37° C. in Mueller Hinton Broth (MHB, BD Singapore) prior to experiments. Fungus was grown overnight at 22° C. in Yeast Mold Broth (YMB, BD Singapore). […] […] […] Medium solution containing microbial cells alone were used as control (100% microbial growth). The assay was performed in four replicates and the experiments were repeated at least two times.

Data set [2] has as its system Pseudomonas aeruginosa (ATCC 9027, Gram-negative). The data set is described as above. The following applies: 24 h, lowest concentration with no visible growth. The format is cell-based. How it is done: (§1) Staphylococcus aureus (ATCC 6538, Gram-positive), Escherichia coli (ATCC 8739, Gram-negative), Pseudomonas aeruginosa (ATCC 9027, Gram-negative), and Candida albicans (ATCC 10231, fungus) were used as representative microorganisms to challenge the antimicrobial functions of the oligomers. All bacteria and fungus were frozen at -80° C., and were grown overnight at 37° C. in Mueller Hinton Broth (MHB, BD Singapore) prior to experiments. Fungus was grown overnight at 22° C. in Yeast Mold Broth (YMB, BD Singapore). […] The plates were incubated at 37° C. for 24 h with constant shaking speed at 300 rpm. […] Medium solution containing microbial cells alone were used as control (100% microbial growth). The assay was performed in four replicates and the experiments were repeated at least two times.

The subject of data set [3] is Escherichia coli (ATCC 8739, Gram-negative). The description is as above. The format is cell-based. To be noted: 24 h, lowest concentration with no visible growth. How it is done:
as §1

Data set [4] deals with Staphylococcus aureus (ATCC 6538, Gram-positive). Described as above. The format is cell-based. The following applies: 24 h, lowest concentration with no visible growth. Here is the method:
as §1

The nature of data set [5]: Critical micelle concentration. Format: physicochemical.
Another data set relates to Candida albicans. Kind of data set: Killing efficacy of selected oligomers at 62 μg/ml (FIG. 1). Format: cell-based. To be noted: for Fungistatic or fungicidal: survivors at 24 h compared with 0 h.
For data set [6], the system named is C. albicans. As to the kind of experiment: Checkerboard assay of oligomers with triazoles (FIC). To be noted: Candida albicans; for FIC with Fluconazole: calculated from lowest concentration inhibiting at least 50% growth; for Alone MIC50 component A: oligomer alone. Format: cell-based. Here is the method: […]. […] A row and a column in which a serial dilution of each agent was present alone were also prepared for MIC test. Then each solution in the well plate was inoculated with 100 μL of logarithmically grown 10^6 cells/ml C. albicans cells in the 96-well plate. The plate also contained a column with C. albicans only as control (100% cell growth). The cells were incubated at room temperature for 24 h with constant shaking, after which cell growth (i.e. the O.D. at 600 nm) was monitored with a microplate reader (TECAN) Synergy between fluconazole and oligomers was determined by calculating the fractional inhibitory concentration index ([…] was calculated as follows: FIC=(MIColigomer A in combination/MIColigomer A alone)+(MICazole B in combination/MICazole B alone). […] The interaction of selected oligomers with other triazoles such as itraconazole and voriconazole was also investigated using the checkerboard dilution method. For comparison, the interaction of the selected oligomer with a non-triazole antifungal agent […] was also investigated.

For data set [7], the system named is mouse red blood cells (RBCs). Kind of data set: Hemolysis study. The following applies: oligomer concentration giving 10% hemolysis, 1 h, 37° C. The format is cell-based. How it is done:
After 1 h incubation at 37° C., the mixture was centrifuged at 2000 rpm for 5 min. Aliquots (100 μl) of the supernatant were transferred to a 96-well plate. Hemolytic activity was determined as a function of hemoglobin release by measuring absorbance of the supernatant at 576 nm using a microplate reader. A control solution that contained only PBS was used as a reference for 0% hemolysis. Absorbance of red blood cells lysed with 0.5% Triton-X was taken as 100% hemolysis. The oligomer concentration which results in 10% hemolysis is indicated as HC10 in Table 1. The data were expressed as mean and S.D. of four replicates. % Hemolysis=[OD576 nm (polymer)−OD576 nm (PBS)]/[OD576 nm (Triton-X)−OD576 nm (PBS)]×100%

Data set [8] relates to C. albicans. The format is cell-based, Candida albicans.
In data set [9] the test system is C. albicans. As to the kind of experiment: Growth of C. albicans with IDPBX8, fluconazole or combination (OD600, colony counting; FIG. 2b, 2c).
Another data set has as its system Staphylococcus aureus. As to the kind of experiment: Percentage growth after 24 hours with norfloxacin, IDPBX8 and 1:1 mixture (FIG. 2a). Format: cell-based. To be noted: IDPBX8 combined with norfloxacin, 1:1 weight ratio.
Setting [10] is: Candida albicans ~10^6 CFU/ml, YMB, room temperature, no visible growth.
Setting [11] is: oligomer in combination with Fluconazole.
Setting [12] is: oligomer in combination with Itraconazole.
Setting [13] is: oligomer in combination with Voriconazole.
The mark [14] stands for this setting: oligomer with Fluconazole (Table 2).

A word on the MIC: it is the lowest concentration that inhibits growth of the organism. Low values mean greater potency, high ones weaker potency. By MIC50 is commonly meant the lowest concentration that inhibits either 50% of growth or 50% of the strains tested, depending on the study.

≈ marks a conversion by molar mass, not a printed value.

As to `CCCCCCCC[N+]12CC[N+](C/C=C/C[N+]34CC[N+](CCCCCCCC)(CC3)CC4)(CC1)CC2.[Br-].[Br-].[Br-].[Br-]` [DDB8], the “MIC C.A.” value in data set [1] (setting [10]) is 125 µg/mL. Further, the “MIC50 C.A. (value in brackets)” value in [1] was “(16) μg/ml”. In data set [2], the “MIC P.A.” value was determined as 125 µg/mL. For the same molecule, the “MIC E.C.” value in [3] was 8 µg/mL. Moreover, the “MIC S.A.” value in [4] is 4 µg/mL. In data set [5], this molecule yielded a CMC of 1552 µg/mL. For the same molecule, the Fungistatic or fungicidal result in the data set with Candida albicans (62 μg/ml) is “fungistatic”. In addition, the “FIC with Fluconazole” value with C. albicans [6] was 0.25. This molecule displayed an HC10 in data set [7] of over 2000 µg/mL.
In turn, `OC(Cn1cncn1)(Cn1cncn1)c1ccc(F)cc1F` [Fluconazole, fluconazole, reference compound] had an MIC in data set [1] (ATCC10231, Candida albicans ~10^6 CFU/ml, YMB, room temperature, no visible growth) of 2 to 4 µg/mL (≈ 6.53 to 13.1 µM). Further, in the data set with Candida albicans (62 μg/ml, 24 h), the “Number of surviving C. albicans after 24 h treatment compared with control” value is “significantly less than the untreated control”. In addition, in the data set with Candida albicans (62 μg/ml), the Fungistatic or fungicidal entry is reported as “fungistatic rather than fungicidal”. Further, the MIC50 with C. albicans [6] (triazole alone, read-out: Alone MIC50 component B) is 4 µg/mL. For the same molecule, the “Alone MIC50 component B” value in the data set on C. albicans [6] (triazole alone) is 2 µg/mL. The “Combined MIC50 component B” value in the data set on C. albicans [6] (triazole in combination with IDPBX8) was 0.5 µg/mL; in the data set with C. albicans [6] (triazole in combination with IDPPX8) it was 0.25 µg/mL; in the data set with C. albicans [6] (triazole in combination with IIDPPBX8) it was 2 µg/mL. Besides, the “MIC increase by the 31th passage” value with C. albicans [8] (grown at 1/4 MIC, 31th passage) is reported as 8 times of the original MIC.
In the case of `CCCCCCCC[n+]1ccn(Cc2ccc(C[N+]34CC[N+](C/C=C/C[N+]56CC[N+](Cc7ccc(Cn8cc[n+](CCCCCCCC)c8)cc7)(CC5)CC6)(CC3)CC4)cc2)c1.[Br-].[Br-].[Br-].[Br-].[Br-].[Br-]` [IDPBX8], in [1] (setting [10]), the “MIC C.A.” value fell in the range of 8 to 31 µg/mL. For the same molecule, in data set [1], the “MIC50 C.A. (value in brackets)” value is reported as “(2-8) μg/ml”. Also, the “MIC P.A.” value in data set [2] came to 62 µg/mL. Further, in data set [3], the “MIC E.C.” value was determined as 31 µg/mL. Also, the “MIC S.A.” value in data set [4] is 16 µg/mL. The CMC in data set [5] turned out to be 1456 µg/mL. Further, the Killing was 99% in the data set with Candida albicans (62 μg/ml, after 24 h treatment) and 99.99% in the data set with Candida albicans (62 μg/ml, after 48 h). Besides, the Killing kinetics result with Candida albicans (IDPBX8 compared with IIDPPBX8) was “kills faster”. Also, the “Interaction when applied together with voriconazole” value with C. albicans [6] is “Synergy”. Also, the “FIC with Fluconazole” value in the data set with C. albicans [6] is reported as 0.38. For the same molecule, the “Alone MIC50 component A” value with C. albicans [6] came out at 8 µg/mL. Further, the figures for the “Combined MIC50 component A” value with C. albicans [6] (setting [11]), in the data set on C. albicans [6] (setting [12]) and with C. albicans [6] (setting [13]) were 1 µg/mL, 1 µg/mL and 2 µg/mL, respectively. In addition, the FIC with C. albicans [6] (setting [14]) is given as 0.38; in the data set on C. albicans [6] (oligomer with Itraconazole) it was 0.62; in the data set on C. albicans [6] (oligomer with Voriconazole), 0.31. The “Total concentration of the combination at which killing effect was observed” value in the data set with C. albicans [9] came out at 2 µg/mL. Further, the “Activity of combination versus single agents” value in the data set with C. albicans [9] (IDPBX8 combined with fluconazole, 1:1 weight ratio, 24 h) is recorded as “higher activity than each compound/medicine used alone”. The HC10 in data set [7] is over 2000 µg/mL. For the same molecule, the “Resistance developed by C. albicans” value in the data set with C. albicans [8] (36 consecutive days of treatment) is on record as “no significant resistance was developed”. For the same molecule, the “MICs over the entire 36 passages” value against C. albicans [8] (grown at 1/4 MIC) is listed as “relatively stable”. For the same molecule, the “Efficacy of combination versus single agents” value with Staphylococcus aureus is listed as “did not show improved efficacy”.
Regarding `CCCCCCCC[n+]1ccn(Cc2ccc(C[N+]34CC[N+](Cc5ccc(C[N+]67CC[N+](Cc8ccc(Cn9cc[n+](CCCCCCCC)c9)cc8)(CC6)CC7)cc5)(CC3)CC4)cc2)c1.[Br-].[Br-].[Br-].[Br-].[Br-].[Br-]` [IDPPX8], the “MIC C.A.” value in data set [1] (setting [10]) was determined as 62 µg/mL. For the same molecule, in data set [1], the “MIC50 C.A. (value in brackets)” value is “(8-31) μg/ml”. For the same molecule, the “MIC P.A.” value in data set [2] is 500 µg/mL. The “MIC E.C.” value in data set [3] came out at 62 µg/mL. Also, the “MIC S.A.” value in [4] turned out to be 8 µg/mL. The molecule also showed a CMC in data set [5] of 1552 µg/mL. In addition, the Fungistatic or fungicidal result in the data set with Candida albicans (62 μg/ml) is “fungistatic”. Also, the “Interaction when applied together with voriconazole” value in the data set on C. albicans [6] was “Synergy”. In addition, the “FIC with Fluconazole” value with C. albicans [6] was 0.25. Besides, the “Alone MIC50 component A” value with C. albicans [6] worked out at 16 µg/mL. In addition, the “Combined MIC50 component A” value in the data set on C. albicans [6] (setting [11]) was found to be 2 µg/mL; with C. albicans [6] (setting [12]), 4 µg/mL; with C. albicans [6] (setting [13]), 4 µg/mL. Further, the FIC in the data set on C. albicans [6] (setting [14]) amounted to 0.19; in the data set on C. albicans [6] (oligomer with Itraconazole), 0.50; in the data set on C. albicans [6] (oligomer with Voriconazole), 0.30. For the same molecule, the HC10 in data set [7] was over 2000 µg/mL.
